The results in this text go back to patent US9763941B2, “Method of treating melanoma by administration of pharmaceutical formulations of (S)-methyl (1-((4-(3-(5-chloro-2-fluoro-3-(methylsulfonamido)phenyl)-1-isopropyl-1H-pyrazol-4-yl)pyrimidin-2-yl)amino)propan-2-yl)carbamate” (Array BioPharma, Inc., priority 2011, dated 2017).

This data set in a line: aqueous solubility characteristics / BCS classification. The format is physicochemical. From the text:
Upon emptying from the stomach, COMPOUND A has the tendency to quickly precipitate out of solution due to an abrupt solubility drop in intestinal pH. […] The present invention relates to orally bioavailable pharmaceutical solid dispersion formulations of COMPOUND A.
Therapeutic compounds with such solubility characteristics typically present pharmaceutical formulation scientists with a challenge while attempting to prepare oral formulations capable of improving oral bioavailability of the therapeutic compound. Such challenges in preparing solid oral dosage forms of COMPOUND A are overcome, according to the present invention, by formulating the compound as a solid dispersion.

Entries after “also recorded” stand apart in the source; their conditions may differ.

As for `COC(=O)N[C@@H](C)CNc1nccc(-c2cn(C(C)C)nc2-c2cc(Cl)cc(NS(C)(=O)=O)c2F)n1` [COMPOUND A, (S)-methyl (1-((4-(3-(5-chloro-2-fluoro-3-(methylsulfonamido)phenyl)-1-isopropyl-1H-pyrazol-4-yl)pyrimidin-2-yl)amino)propan-2-yl)carbamate], the BCS class entry is recorded as “BCS class II”. Besides, the “solubility at low pH” value (low pH) is reported as “higher solubility; also recorded: highly soluble”. The “aqueous solubility at weakly acidic and neutral pH” value (weakly acidic and neutral pH) was “limited solubility; also recorded: poor aqueous solubility”.
